Patent US10793553B2, “TLR7/8 antagonists and uses thereof” (Merck Patent GmbH, priority 2017, dated 2020)

Assays:
[1] = target: T1, TLR7 (Homo sapiens, UniProt Q9NYK1); test: HEK TLR7 Cell Assay; assay type: cell-based; settings: TLR7/NFKb HEK cells, R848 agonist 10 uM final, Steady-Glo readout
T1 construct: expressed in transfected cells; host or cells: HEK cells carrying TLR7 and an NFkB luciferase reporter
T1 sequence (Q9NYK1 27-1049): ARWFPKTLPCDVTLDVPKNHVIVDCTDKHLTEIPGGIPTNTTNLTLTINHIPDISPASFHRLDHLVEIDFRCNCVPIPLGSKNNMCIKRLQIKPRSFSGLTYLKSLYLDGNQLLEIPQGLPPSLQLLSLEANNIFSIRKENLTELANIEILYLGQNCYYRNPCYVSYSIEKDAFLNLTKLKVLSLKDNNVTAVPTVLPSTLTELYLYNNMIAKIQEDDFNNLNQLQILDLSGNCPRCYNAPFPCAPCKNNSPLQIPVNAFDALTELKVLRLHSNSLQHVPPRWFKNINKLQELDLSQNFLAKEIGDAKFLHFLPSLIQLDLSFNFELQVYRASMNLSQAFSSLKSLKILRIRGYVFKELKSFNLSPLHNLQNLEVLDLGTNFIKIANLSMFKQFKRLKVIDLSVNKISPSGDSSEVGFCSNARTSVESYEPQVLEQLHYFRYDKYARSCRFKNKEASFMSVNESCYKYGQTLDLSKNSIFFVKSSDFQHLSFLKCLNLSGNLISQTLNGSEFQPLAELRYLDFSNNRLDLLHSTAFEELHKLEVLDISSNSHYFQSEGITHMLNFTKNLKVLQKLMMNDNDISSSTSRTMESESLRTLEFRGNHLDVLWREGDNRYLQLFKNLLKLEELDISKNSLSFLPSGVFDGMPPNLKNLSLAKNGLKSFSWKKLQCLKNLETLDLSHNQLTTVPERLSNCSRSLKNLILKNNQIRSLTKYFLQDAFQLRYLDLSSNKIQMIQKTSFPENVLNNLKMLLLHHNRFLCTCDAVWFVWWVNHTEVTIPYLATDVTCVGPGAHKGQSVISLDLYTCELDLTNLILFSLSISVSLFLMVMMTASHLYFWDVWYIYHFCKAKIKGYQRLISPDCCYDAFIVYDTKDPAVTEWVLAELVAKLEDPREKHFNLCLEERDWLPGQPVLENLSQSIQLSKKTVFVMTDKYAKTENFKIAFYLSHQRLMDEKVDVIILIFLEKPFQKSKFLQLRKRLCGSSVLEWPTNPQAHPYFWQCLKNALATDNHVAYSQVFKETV
Procedure: Example 24: HEK TLR7 Cell Assay
(§1) Into 384 CulturePlates (Corning 3707) was placed 5000 c/w of TLR7/NFKb HEK cells in 30 uL DMEM without Phenol red (gibco #31053) and 10% FCS-HI, 2 mM L-Glutamine, 1% Pen/Strept. The cells are incubated for 24 h at 37 degrees Celsius, and 10% carbon dioxide. Dispense 3 uL of controls, standards, and compounds to wells, incubate for 30 min then add 3 uL of R848 (10 uM final concentration) agonist in 20 mM Hepes. Incubate for 5 hours and then allow to stand at room temperature for 15 min. Add 10 uL of Steady-Glo substrate reagent and shake assay plate for 5 min at 1500 rpm. Let the assay plate sit for 30 min at room temperature and then read plate on EnVision.

[2] = target: T2, TLR8 (Homo sapiens, UniProt Q9NR97); test: HEK TLR8 Cell Assay; assay type: cell-based; settings: TLR8/NFKb HEK cells, R848 agonist 30 uM final, Steady-Glo readout
T2 construct: expressed in transfected cells; host or cells: HEK cells carrying TLR8 and an NFkB luciferase reporter
T2 sequence (Q9NR97 27-1041): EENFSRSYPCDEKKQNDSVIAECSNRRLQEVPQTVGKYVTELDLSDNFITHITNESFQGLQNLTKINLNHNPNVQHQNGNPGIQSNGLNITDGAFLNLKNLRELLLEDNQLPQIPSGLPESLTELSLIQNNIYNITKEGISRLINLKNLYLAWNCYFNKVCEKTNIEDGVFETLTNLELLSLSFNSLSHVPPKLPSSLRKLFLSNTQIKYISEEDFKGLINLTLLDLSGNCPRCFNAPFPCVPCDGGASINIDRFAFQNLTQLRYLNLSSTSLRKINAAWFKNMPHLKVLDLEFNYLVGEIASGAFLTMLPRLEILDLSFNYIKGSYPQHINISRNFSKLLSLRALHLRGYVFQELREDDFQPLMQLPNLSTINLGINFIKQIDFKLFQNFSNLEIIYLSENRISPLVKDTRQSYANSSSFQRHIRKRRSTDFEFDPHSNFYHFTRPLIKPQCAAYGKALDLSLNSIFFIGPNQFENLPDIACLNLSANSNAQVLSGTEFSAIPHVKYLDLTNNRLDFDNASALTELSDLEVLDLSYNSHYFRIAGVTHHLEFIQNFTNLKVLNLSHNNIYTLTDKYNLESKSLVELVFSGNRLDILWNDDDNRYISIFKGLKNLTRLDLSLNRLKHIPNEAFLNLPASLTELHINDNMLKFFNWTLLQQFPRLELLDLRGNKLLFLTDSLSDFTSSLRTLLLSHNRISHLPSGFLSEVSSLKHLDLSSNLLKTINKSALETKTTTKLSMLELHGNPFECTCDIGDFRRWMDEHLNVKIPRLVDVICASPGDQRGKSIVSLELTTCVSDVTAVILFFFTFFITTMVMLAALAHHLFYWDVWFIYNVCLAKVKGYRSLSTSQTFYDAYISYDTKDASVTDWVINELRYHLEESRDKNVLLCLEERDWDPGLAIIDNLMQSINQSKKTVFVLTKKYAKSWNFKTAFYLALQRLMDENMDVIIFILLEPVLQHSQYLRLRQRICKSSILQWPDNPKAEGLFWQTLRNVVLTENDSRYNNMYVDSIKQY
Procedure: Example 25: HEK TLR8 Cell Assay
as §1, with “TLR8/NFKb” for “TLR7/NFKb”, “(30” for “(10”

C[C@@H]1CN(c2ccc(C(F)(F)F)c3ncccc23)C[C@@H]1NC(=O)C(O)C1CC1 (single isomer, unassigned) [Compound 30]
IC50 [1]: 1 to 10 µM | IC50 [2]: 1 to 10 µM

Cc1ccc(N2C[C@@H](C)[C@@H](NC(=O)CC3CCN(C)CC3(F)F)C2)c2cccnc12 (single isomer, unassigned) [Compound 44]
IC50 [1]: 1 to 10 µM | IC50 [2]: 1 to 10 µM

C[C@@H]1CN(c2ccc(C(F)(F)F)c3ncccc23)C[C@@H]1NC(=O)C(O)C1CC1 (single isomer, unassigned) [Compound 29]
IC50 [1]: 1 to 10 µM | IC50 [2]: > 10 µM

C[C@@H]1CN(c2ccc(C#N)c3nccnc23)C[C@@H]1NC(=O)C(O)C1CC1 (single isomer, unassigned) [Compound 14]
IC50 [1]: < 1 µM | IC50 [2]: 1 to 10 µM

C[C@@H]1CN(c2ccc(C(F)(F)F)c3ncccc23)C[C@@H]1NC(=O)CC1CCN(C)C1 (single isomer, unassigned) [Compound 21]
IC50 [1]: < 1 µM | IC50 [2]: < 1 µM

Cc1ccc(N2C[C@@H](C)[C@@H](NC(=O)[C@H](O)C(C)C)C2)c2cccnc12 [Compound 48, (2R)-2-hydroxy-3-methyl-N-[(3R,4R)-4-methyl-1-(8-methylquinolin-5-yl)pyrrolidin-3-yl]butanamide]
IC50 [1]: > 10 µM | IC50 [2]: > 10 µM

NC1CN(c2ccc(C(F)(F)F)c3ncccc23)CC1F (single isomer, unassigned) [Compound 49]
IC50 [1]: > 10 µM | IC50 [2]: > 10 µM

C[C@@H]1CN(c2ccc(C(F)(F)F)c3ncccc23)C[C@@H]1N [Compound 17, (3R,4R)-4-methyl-1-[8-(trifluoromethyl)quinolin-5-yl]pyrrolidin-3-amine]
IC50 [1]: 1 to 10 µM | IC50 [2]: > 10 µM

Cc1ccc(N2C[C@@H](C)[C@@H](NC(=O)CC3CCCN(C)C3)C2)c2cccnc12 (single isomer, unassigned) [Compound 35]
IC50 [1]: 1 to 10 µM | IC50 [2]: 1 to 10 µM

C[C@@H]1CN(c2ccc(C(F)(F)F)c3ncccc23)C[C@@H]1NC(=O)CC1(F)CCNCC1 [Compound 25, 2-(4-fluoropiperidin-4-yl)-N-[(3R,4R)-4-methyl-1-[8-(trifluoromethyl)quinolin-5-yl]pyrrolidin-3-yl]acetamide]
IC50 [1]: < 1 µM | IC50 [2]: < 1 µM

CC(C)[C@@H](O)C(=O)N[C@H]1CN(c2ccc(C#N)c3nccnc23)C[C@H]1C [Compound 16, (2R)—N-[(3R,4R)-1-(8-cyanoquinoxalin-5-yl)-4-methylpyrrolidin-3-yl]-2-hydroxy-3-methylbutanamide]
IC50 [1]: 1 to 10 µM | IC50 [2]: 1 to 10 µM
